Results: patent publication US20070049593A1 (priority 2004, published 2007)
Counter-ions that a name gives are not always drawn.

Target: T1, HCV polymerase (Hepatitis C virus genotype 1b, UniProt P26663)
T1 construct: a region encoding NS5B (J Virol 1991 March, 65(3), 1105-13, 544 amino acids after deletion of 47 amino acids on the C-terminal); 6xHis (C); made in house; host or cells: Escherichia coli
Assay: biochemical
Design: species or system HCV BK strain
Outline: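 Recombinant HCV BK-strain NS5B (C-terminal 47 aa deleted, His6-tagged, E. coli), 0.5 μg/ml, run with 5 μg/ml in vitro-transcribed RNA template (polyU/3′X), ATP/GTP/CTP 50 μM, UTP 2 μM plus [3H]UTP, pH 7.5, 25° C, 90 min. TCA-precipitated RNA counted by scintillation; IC50 from activity with vs without compound.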

T1 sequence (P26663 2420-2963): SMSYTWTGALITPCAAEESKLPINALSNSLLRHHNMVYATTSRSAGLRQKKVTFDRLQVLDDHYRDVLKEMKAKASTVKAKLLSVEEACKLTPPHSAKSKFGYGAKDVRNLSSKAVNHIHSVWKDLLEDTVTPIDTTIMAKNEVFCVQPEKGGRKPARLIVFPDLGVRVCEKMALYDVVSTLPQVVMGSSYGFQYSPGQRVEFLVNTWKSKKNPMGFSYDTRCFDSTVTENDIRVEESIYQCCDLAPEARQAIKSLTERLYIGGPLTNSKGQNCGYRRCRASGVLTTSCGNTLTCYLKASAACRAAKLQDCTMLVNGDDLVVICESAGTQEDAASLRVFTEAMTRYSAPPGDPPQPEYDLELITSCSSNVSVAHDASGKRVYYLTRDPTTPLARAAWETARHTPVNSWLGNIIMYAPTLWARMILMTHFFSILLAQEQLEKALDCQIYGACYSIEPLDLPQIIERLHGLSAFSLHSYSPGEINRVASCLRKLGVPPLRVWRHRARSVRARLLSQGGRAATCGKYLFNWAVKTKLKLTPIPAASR

| SMILES | IC50 [nM] |
| --- | --- |
| COC(=O)[C@H](CCCCNC(=O)OC(C)(C)C)NC(=O)c1ccc2c(C3CCCCC3)c3n(c2c1)CCOc1cc(OC)ccc1-3 [Example 2-309, methyl (S)-6-tert-butoxycarbonylamino-2-[(12-cyclohexyl-3-methoxy-6,7-dihydro-5-oxa-7a-azadibenzo[a,e]azulene-9-carbonyl)amino]hexanoate] | 100 to 1000 |
| COc1ccc2c(c1)OCCn1c-2c(C2CCCCC2)c2ccc(C(=O)N[C@@H](Cc3c[nH]cn3)C(=O)O)cc21 [Example 2-310, (S)-2-[(12-cyclohexyl-3-methoxy-6,7-dihydro-5-oxa-7a-azadibenzo[a,e]azulene-9-carbonyl)amino]-3-(1H-imidazol-4-yl)propionic acid] | < 100 |
| CC(C)(NC(=O)c1ccc2c(C3CCCCC3)c3n(c2c1)CCOc1ccccc1-3)c1nc2cc(-c3nnn[nH]3)ccc2[nH]1 [Example 2-311, N-{1-methyl-1-[5-(1H-tetrazol-5-yl)-1H-benzimidazol-2-yl]ethyl}-12-cyclohexyl-6,7-dihydro-5-oxa-7a-azadibenzo[a,e]azulene-9-carboxamide] | < 100 |
| CC(C)(NC(=O)c1ccc2c(C3CCCCC3)c3n(c2c1)CCOc1ccccc1-3)c1nc2ccccc2n1CC(=O)O [Example 2-312, (2-{1-[(12-cyclohexyl-6,7-dihydro-5-oxa-7a-azadibenzo[a,e]azulene-9-carbonyl)amino]-1-methylethyl}benzimidazol-1-yl)acetic acid] | < 100 |
| COC(=O)c1ccc2nc(C3(NC(=O)c4ccc5c(C6CCCCC6)c6n(c5c4)CCOc4ccccc4-6)CCN(C)CC3)[nH]c2c1 [Example 2-313, methyl 2-{4-[(12-cyclohexyl-6,7-dihydro-5-oxa-7a-azadibenzo[a,e]azulene-9-carbonyl)amino]-1-methylpiperidin-4-yl]-3H-benzimidazole-5-carboxylate] | < 100 |
| COC[C@H](Cc1ccc(O)cc1)NC(=O)c1ccc2c(C3CCCCC3)c3n(c2c1)CCOc1cc(OC)ccc1-3 [Example 2-314, N—[(S)-1-(4-hydroxybenzyl)-2-methoxyethyl]-12-cyclohexyl-3-methoxy-6,7-dihydro-5-oxa-7a-azadibenzo[a,e]azulene-9-carboxamide] | < 100 |
| COC(=O)C(Cc1ccc(O)c(F)c1)NC(=O)c1ccc2c(C3CCCCC3)c3n(c2c1)CCOc1cc(OC)ccc1-3 (stereo not drawn) [Example 2-315, methyl 2-[(12-cyclohexyl-3-methoxy-6,7-dihydro-5-oxa-7a-azadibenzo[a,e]azulene-9-carbonyl)amino]-3-(3-fluoro-4-hydroxyphenyl)propionate] | < 100 |
| COC(=O)[C@H](Cc1c[nH]c2ccc(O)cc12)NC(=O)c1ccc2c(C3CCCCC3)c3n(c2c1)CCOc1cc(OC)ccc1-3 [Example 2-316, methyl (S)-2-[(12-cyclohexyl-3-methoxy-6,7-dihydro-5-oxa-7a-azadibenzo[a,e]azulene-9-carbonyl)amino]-3-(5-hydroxy-1H-indol-3-yl)propionate] | < 100 |
| COC(=O)[C@H](Cc1ccc(NC(=O)OCc2ccccc2)cc1)NC(=O)c1ccc2c(C3CCCCC3)c3n(c2c1)CCOc1cc(OC)ccc1-3 [Example 2-317, methyl (S)-3-(4-benzyloxycarbonylaminophenyl)-2-[(12-cyclohexyl-3-methoxy-6,7-dihydro-5-oxa-7a-azadibenzo[a,e]azulene-9-carbonyl)amino]propionate] | < 100 |
| COc1ccc2c(c1)OCCn1c-2c(C2CCCCC2)c2ccc(C(=O)N[C@@H](Cc3ccc(NC(=O)OCc4ccccc4)cc3)C(=O)O)cc21 [Example 2-318, (S)-3-(4-benzyloxycarbonylaminophenyl)-2-[(12-cyclohexyl-3-methoxy-6,7-dihydro-5-oxa-7a-azadibenzo[a,e]azulene-9-carbonyl)amino]propionic acid] | < 100 |
| COC(=O)[C@H](Cc1ccc(N)cc1)NC(=O)c1ccc2c(C3CCCCC3)c3n(c2c1)CCOc1cc(OC)ccc1-3 [Example 2-319, methyl (S)-3-(4-aminophenyl)-2-[(12-cyclohexyl-3-methoxy-6,7-dihydro-5-oxa-7a-azadibenzo[a,e]azulene-9-carbonyl)amino]propionate] | < 100 |
| COc1ccc2c(c1)OCCn1c-2c(C2CCCCC2)c2ccc(C(=O)N[C@@H](Cc3ccc(N)cc3)C(=O)O)cc21 [Example 2-320, (S)-3-(4-aminophenyl)-2-[(12-cyclohexyl-3-methoxy-6,7-dihydro-5-oxa-7a-azadibenzo[a,e]azulene-9-carbonyl)amino]propionic acid] | < 100 |
| CC(C)(C)OC(=O)NC1CCN(C(=O)C(C)(C)NC(=O)c2ccc3c(C4CCCCC4)c4n(c3c2)CCOc2ccccc2-4)CC1 [Example 2-321, tert-butyl (1-{2-[(12-cyclohexyl-6,7-dihydro-5-oxa-7a-azadibenzo[a,e]azulene-9-carbonyl)amino]-2-methylpropionyl)piperidin-4-yl)carbamate] | < 100 |
| CC(C)(NC(=O)c1ccc2c(C3CCCCC3)c3n(c2c1)CCOc1ccccc1-3)C(=O)N1CCC(O)C1 (stereo not drawn) [Example 2-322, N-[2-(3-hydroxypyrrolidin-1-yl)-1,1-dimethyl-2-oxoethyl]-12-cyclohexyl-6,7-dihydro-5-oxa-7a-azadibenzo[a,e]azulene-9-carboxamide] | < 100 |
| COCc1cccc(-c2cccc3c2OCCn2c-3c(C3CCCCC3)c3ccc(C(=O)O)cc32)c1 [Example 2-323, 12-cyclohexyl-4-(3-methoxymethylphenyl)-6,7-dihydro-5-oxa-7a-azadibenzo[a,e]azulene-9-carboxylic acid] | < 100 |
| O=C(O)c1ccc2c(C3CCCCC3)c3n(c2c1)CCOc1c(Nc2ccccc2)cccc1-3 [Example 2-324, 12-cyclohexyl-4-phenylamino-6,7-dihydro-5-oxa-7a-azadibenzo[a,e]azulene-9-carboxylic acid] | < 100 |
| O=C(O)c1ccc2c(C3CCCCC3)c3n(c2c1)CCOc1c(-c2ccccc2CO)cccc1-3 [Example 2-325, 12-cyclohexyl-4-(2-hydroxymethylphenyl)-6,7-dihydro-5-oxa-7a-azadibenzo[a,e]azulene-9-carboxylic acid] | < 100 |
| COCc1ccccc1-c1cccc2c1OCCn1c-2c(C2CCCCC2)c2ccc(C(=O)O)cc21 [Example 2-327, 12-cyclohexyl-4-(2-methoxymethylphenyl)-6,7-dihydro-5-oxa-7a-azadibenzo[a,e]azulene-9-carboxylic acid] | < 100 |
| CN(C)Cc1cccc(-c2cccc3c2OCCn2c-3c(C3CCCCC3)c3ccc(C(=O)O)cc32)c1 [Example 2-328, 12-cyclohexyl-4-(3-dimethylaminomethylphenyl)-6,7-dihydro-5-oxa-7a-azadibenzo[a,e]azulene-9-carboxylic acid monohydrochloride] | < 100 |
| CCOC(=O)c1ccc2c(c1)nc(C(C)(C)NC(=O)c1ccc3c(C4CCCCC4)c4n(c3c1)CCOc1ccccc1-4)n2C [Example 2-329, ethyl 2-{1-[(12-cyclohexyl-6,7-dihydro-5-oxa-7a-azadibenzo[a,e]azulene-9-carbonyl)amino]-1-methylethyl}-1-methyl-1H-benzimidazole-5-carboxylate] | < 100 |
| Cn1c(C(C)(C)NC(=O)c2ccc3c(C4CCCCC4)c4n(c3c2)CCOc2ccccc2-4)nc2cc(C(=O)O)ccc21 [Example 2-330, 2-{1-[(12-cyclohexyl-6,7-dihydro-5-oxa-7a-azadibenzo[a,e]azulene-9-carbonyl)amino]-1-methylethyl}-1-methyl-1H-benzimidazole-5-carboxylic acid] | < 100 |
| COC(=O)c1cc2nc(C(C)(C)NC(=O)c3ccc4c(C5CCCCC5)c5n(c4c3)CCOc3cc(OC)ccc3-5)[nH]c2cc1OC [Example 2-331, methyl 2-{1-[(12-cyclohexyl-3-methoxy-6,7-dihydro-5-oxa-7a-azadibenzo[a,e]azulene-9-carbonyl)amino]-1-methylethyl}-6-methoxy-1H-benzimidazole-5-carboxylate] | < 100 |
| COc1ccc2c(c1)OCCn1c-2c(C2CCCCC2)c2ccc(C(=O)NC(C)(C)c3nc4ccc(C(=O)O)cc4[nH]3)cc21 [Example 2-332, 2-{1-[(12-cyclohexyl-3-methoxy-6,7-dihydro-5-oxa-7a-azadibenzo[a,e]azulene-9-carbonyl)amino]-1-methylethyl}-3H-benzimidazole-5-carboxylic acid] | < 100 |
| CCN(CCCCOC)C(=O)C(C)(C)NC(=O)c1ccc2c(C3CCCCC3)c3n(c2c1)CCOc1ccccc1-3 [Example 2-333, N-{1-[N-ethyl-N-(4-methoxybutyl)carbamoyl]-1-methylethyl}-12-cyclohexyl-6,7-dihydro-5-oxa-7a-azadibenzo[a,e]azulene-9-carboxamide] | < 100 |
| CC(=O)NC1CCN(C(=O)C(C)(C)NC(=O)c2ccc3c(C4CCCCC4)c4n(c3c2)CCOc2ccccc2-4)CC1 [Example 2-334, N-[2-(4-acetylaminopiperidin-1-yl)-1,1-dimethyl-2-oxoethyl]-12-cyclohexyl-6,7-dihydro-5-oxa-7a-azadibenzo[a,e]azulene-9-carboxamide] | < 100 |
| CC(C)(NC(=O)c1ccc2c(C3CCCCC3)c3n(c2c1)CCOc1ccccc1-3)C(=O)N1CCC(NS(C)(=O)=O)CC1 [Example 2-335, N-[2-(4-methanesulfonylaminopiperidin-1-yl)-1,1-dimethyl-2-oxoethyl]-12-cyclohexyl-6,7-dihydro-5-oxa-7a-azadibenzo[a,e]azulene-9-carboxamide] | < 100 |
| COC(=O)c1ccc2nc(C(C)(C)NC(=O)c3ccc4c(C5CCCCC5)c5n(c4c3)CCOc3ccccc3-5)n(C)c2c1 [Example 2-336, methyl 2-{1-[(12-cyclohexyl-6,7-dihydro-5-oxa-7a-azadibenzo[a,e]azulene-9-carbonyl)amino]-1-methylethyl}-3-methyl-3H-benzimidazole-5-carboxylate] | < 100 |
